We go through 24 compounds from US20130060013A1, “Compounds useful for treating neurodegenerative disorders” (SATORI PHARMACEUTICALS, INC., priority 2011, published 2013).

Common to all, as to type: cell-based
Common to all, as to details: Homo sapiens, compound 5 hours at 37° C., 1% DMSO, percent vehicle fit to 4 parameter curve

In assay [1] the test system is Aβ-38. The assay is described as follows: Aβ-38 level in conditioned media of 2B7 cells (MSD 3-PLEX ELISA). The method, then:
(§1) Assays were conducted to determine the ability of a Compound of Formula I to modulate […], and Aβ-38.
(§2) Plates with capture antibodies were blocked for 1-2 hours at room temperature with 150 μL of the manufactures blocking reagent.
(§3) Cultured 2B7 cells in 96 well plate with 250 uL of media per well until confluent;
(§4) Prepared serial dilutions of compounds in DMSO at 100× the final desired concentration;
(§5) Washed wells with 2B7 cells 1× with 250 uL of media;
(§6) Diluted DMSO stocks 1:100 into media:
(§7) Added 250 μL of media containing compounds (1% DMSO) to wells with 2B7 cells for 5 hours at 37° C.
(§8) Diluted conditioned media: 1 part media with 1% DMSO and 1 part blocking buffer;
(§9) 150 μL of the 250 μL of conditioned media were used.
(§10) Standard Curve Sample Prep:
(§11) Prepared per manufacturer's protocol (see above)
(§12) Seven point standard curve samples were prepared that contained Aβ-42, Aβ-40, and Aβ-38. The highest concentration of Aβ-42 and Aβ-38 was 3,000 pg/mL and the highest concentration of Aβ-40 was 10,000 pg/mL. Subsequent serial dilutions were 1:3 and the final composition of each sample was 1 part blocking buffer and 1 part cell medium containing 1% DMSO.
(§13) Overnight Sample Incubation:
(§14) Blocked plates are washed 5× with MSD wash buffer with a plate washer
(§15) 25 uL of detection antibody and blocker G reagent in MSD blocking solution is added
(§16) 25 uL of samples (1 part conditioned media containing 1% DMSO and 1 part MSD blocking buffer) are then added.
(§17) plates are incubated overnight at 4 degrees C. or 2 hours at room temp
(§18) Wash wells 5× with MSD wash buffer
(§19) Added 150 μL 2×MSD read buffer
(§20) A-Beta peptide levels for each peptide are calculated from the standard curve using the MSD software provided with the MSD 2400 Imager. Percent vehicle values for each compound dosage were then calculated and fit to a 4 parameter curve generating IC50 values.

For assay [2], the system named is Aβ-40. Briefly: Aβ-40 level in conditioned media of 2B7 cells (MSD 3-PLEX ELISA). The procedure: as §1
Human (6E10) Ab 3-PLEX elisa kits were purchased from Meso Scale Discovery Labs, 9328 Gaither Road, Gaithersburg, Md. 20877 (Catalog Number K15148E-3). Plates with capture antibodies were blocked for 1-2 hours at room temperature with 150 μL of the manufactures blocking reagent.
as §3, §4, §5, §6, §7, §8, §9, §10, §11, §12, §13, §14, §15, §16, §17, §18, §19, §20
(ELISA stands for enzyme-linked immunosorbent assay.)

Assay [3] has as its system Aβ-42. The assay is described as follows: Aβ-42 level in conditioned media of 2B7 cells (MSD 3-PLEX ELISA). The procedure: as §1, §2, §3, §4, §5, §6, §7, §8, §9, §10, §11, §12, §13, §14, §15, §16, §17, §18, §19, §20

Broadly, the IC50 is the concentration that gives 50% inhibition. Low readings indicate greater potency, high ones weaker potency. In the case of `CCO[C@@H]([C@H]1C[C@@H](C)[C@H]2[C@H](O1)[C@H](OCC)[C@@]1(C)[C@@H]3CC[C@H]4C(C)(C)[C@@H](O)CCC45C[C@@]35CC[C@]21C)C(C)(C)O` (stereo partly drawn), the IC50 in assay [1], in assay [2] and in assay [3] was 1000 to 10000 nM in each case.
As for `CCO[C@@H]([C@H]1C[C@@H](C)[C@H]2[C@H](O1)[C@H](O)[C@@]1(C)[C@@H]3CC[C@H]4C(C)(C)[C@@H](OC(=O)[C@@H]5CCCN5)CCC45C[C@@]35CC[C@]21C)C(C)(C)O` (stereo partly drawn), the results for the 50% inhibitory concentration (IC50) in assay [1], in assay [2] and in assay [3] were < 1000 nM, 1000 to 10000 nM and < 1000 nM, respectively.
On to `CCO[C@@H]([C@H]1C[C@@H](C)[C@H]2[C@H](O1)[C@H](O)[C@@]1(C)[C@@H]3CC[C@H]4C(C)(C)[C@@H](O[C@H]5CN([C@@H](C)CN6CCC6)CCO5)CCC45C[C@@]35CC[C@]21C)C(C)(C)O` (stereo partly drawn), for which the figures for the IC50 in assay [1], in assay [2] and in assay [3] were < 1000 nM, 1000 to 10000 nM and < 1000 nM, respectively.
As for `CCO[C@@H]([C@H]1C[C@@H](C)[C@H]2[C@H](O1)[C@H](O)[C@@]1(C)[C@@H]3CC[C@H]4C(C)(C)[C@@H](O[C@H]5CN(CC(=O)N6CCC6)CCO5)CCC45C[C@@]35CC[C@]21C)C(C)(C)O` (stereo partly drawn), the IC50 in assay [1] was < 1000 nM; in assay [2], 1000 to 10000 nM; in assay [3], < 1000 nM.
Consider `CCO[C@@H]([C@H]1C[C@@H](C)[C@H]2[C@H](O1)[C@H](O)[C@@]1(C)[C@@H]3CC[C@H]4C(C)(C)[C@@H](O[C@H]5CN([C@@H](C)CF)CCO5)CC[C@@]45C[C@@]35CC[C@]21C)C(C)(C)O`, for which the IC50 in assay [1] is 1000 to 10000 nM; in assay [2], > 10000 nM; in assay [3], 1000 to 10000 nM.
Turning to `COCCN1CCO[C@@H](O[C@H]2CCC34C[C@]35CC[C@]3(C)[C@@H]6[C@H](O[C@@H]([C@H](OC)C(C)(C)OC)C[C@H]6C)[C@H](O)[C@@]3(C)[C@@H]5CC[C@H]4C2(C)C)C1` (stereo partly drawn), the values for the IC50 in assay [1], in assay [2] and in assay [3] were 1000 to 10000 nM, > 10000 nM and < 1000 nM, respectively.
`CCO[C@@H](C1C[C@@H](C)[C@H]2C(O1)[C@H](O)[C@@]1(C)C3CC[C@H]4C(C)(C)[C@@H](O[C@H]5CN(c6cnccn6)CCO5)CCC45C[C@@]35CC[C@]21C)C(C)(C)O` (stereo partly drawn): the results for the IC50 in assay [1], in assay [2] and in assay [3] were < 1000 nM, > 10000 nM and < 1000 nM, respectively.
With `CCO[C@@H]([C@H]1C[C@@H](C)[C@H]2[C@H](O1)[C@H](O)[C@@]1(C)[C@@H]3CC[C@H]4C(C)(C)[C@@H](OC(=O)C5CN(C6CCC6)C5)CCC45C[C@@]35CC[C@]21C)C(C)(C)O` (stereo partly drawn), the figures for the IC50 in assay [1], in assay [2] and in assay [3] were < 1000 nM, 1000 to 10000 nM and < 1000 nM, respectively.
On to `CCO[C@@H]([C@H]1C[C@@H](C)[C@H]2[C@H](O1)[C@H](O)[C@@]1(C)[C@@H]3CC[C@H]4C(C)(C)[C@@H](O[C@H]5CN(CC(C)(C)O)CCO5)CCC45C[C@@]35CC[C@]21C)C(C)(C)O` (stereo partly drawn), for which the 50% inhibitory concentration (IC50) was < 1000 nM in assay [1], 1000 to 10000 nM in assay [2] and < 1000 nM in assay [3].
For `CCO[C@@H]([C@H]1C[C@@H](C)[C@H]2[C@H](O1)[C@H](O)[C@@]1(C)[C@@H]3CC[C@H]4C(C)(C)[C@@H](OC(=O)c5cccnc5)CCC45C[C@@]35CC[C@]21C)C(C)(C)O` (stereo partly drawn), the half-maximal inhibitory concentration (IC50) in assay [1] was < 1000 nM; in assay [2] it was > 10000 nM; in assay [3], < 1000 nM.
As for `CCO[C@@H]([C@H]1C[C@@H](C)[C@H]2[C@H](O1)[C@H](O)[C@@]1(C)[C@@H]3CC[C@H]4C(C)(C)[C@@H](O[C@H]5CN(C(=O)CNS(=O)(=O)C(F)(F)F)CCO5)CCC45C[C@@]35CC[C@]21C)C(C)(C)O` (stereo partly drawn), the IC50 in assay [1] was < 1000 nM; in assay [2], 1000 to 10000 nM; in assay [3], < 1000 nM.
On to `CCO[C@@H]([C@H]1C[C@@H](C)[C@H]2[C@H](O1)[C@H](O)[C@@]1(C)[C@@H]3CC[C@H]4C(C)(C)[C@@H](O[C@H]5CN(C(C)(C)CN6CC(F)C6)CCO5)CCC45C[C@@]35CC[C@]21C)C(C)(C)O` (stereo partly drawn), for which the IC50 in assay [1] is < 1000 nM; in assay [2], 1000 to 10000 nM; in assay [3], < 1000 nM.
As for `CCO[C@@H]([C@H]1C[C@@H](C)[C@H]2[C@H](O1)[C@H](O)[C@@]1(C)[C@@H]3CC[C@H]4C(C)(C)[C@@H](OC5CN(CC(=O)N6CCOCC6)CCO5)CCC45C[C@@]35CC[C@]21C)C(C)(C)O` (stereo partly drawn), the IC50 in assay [1] was < 1000 nM; in assay [2], > 10000 nM; in assay [3] it was < 1000 nM.
Turning to `CCO[C@@H]([C@H]1C[C@@H](C)[C@H]2[C@H](O1)[C@H](O)[C@@]1(C)[C@@H]3CC[C@H]4C(C)(C)[C@@H](O[C@H]5CN(CC(=O)N(C)C)CCO5)CCC45C[C@@]35CC[C@]21C)C(C)(C)O` (stereo partly drawn), the IC50 in assay [1] was < 1000 nM; in assay [2] it was 1000 to 10000 nM; in assay [3] it was < 1000 nM.
With `CC(C)[C@@H](OC(=O)N1CCC1)[C@H]1C[C@@H](C)[C@H]2[C@H](O1)[C@H](O)[C@@]1(C)[C@@H]3CC[C@H]4C(C)(C)[C@@H](O[C@H]5CN(C(=O)CN6CCC6)CCO5)CCC45C[C@@]35CC[C@]21C` (stereo partly drawn), the 50% inhibitory concentration (IC50) was < 1000 nM in assay [1], 1000 to 10000 nM in assay [2] and < 1000 nM in assay [3].
On to `CCO[C@@H]([C@H]1C[C@@H](C)[C@H]2[C@H](O1)[C@H](O)[C@@]1(C)[C@@H]3CC[C@H]4C(C)(C)[C@@H](OC(=O)[C@H]5COCCN5CCOC)CCC45C[C@@]35CC[C@]21C)C(C)(C)O` (stereo partly drawn), for which the concentration for half-maximal inhibition (IC50) in assay [1] is < 1000 nM; in assay [2], 1000 to 10000 nM; in assay [3] it was < 1000 nM.
Regarding `CCO[C@@H]([C@H]1C[C@@H](C)[C@H]2[C@H](O1)[C@H](O)[C@@]1(C)[C@@H]3CC[C@H]4C(C)(C)[C@@H](O[C@H]5CN(CC(=O)NCCOC)CCO5)CCC45C[C@@]35CC[C@]21C)C(C)(C)O` (stereo partly drawn), the IC50 is 1000 to 10000 nM in assay [1], 1000 to 10000 nM in assay [2] and < 1000 nM in assay [3].
For the compound `CCO[C@@H]([C@H]1C[C@@H](C)[C@H]2[C@H](O1)[C@H](O)[C@@]1(C)[C@@H]3CC[C@H]4C(C)(C)[C@@H](O[C@H]5CN(C(C)(C)COC)CCO5)CCC45C[C@@]35CC[C@]21C)C(C)(C)O` (stereo partly drawn), the IC50 in assay [1] is < 1000 nM; in assay [2], > 10000 nM; in assay [3] it was < 1000 nM.
`CCO[C@@H]([C@H]1C[C@@H](C)[C@H]2[C@H](O1)[C@H](O)[C@@]1(C)[C@@H]3CC[C@H]4C(C)(C)[C@@H](O[C@H]5CN([C@H](C)CO)CCO5)CC[C@@]45C[C@@]35CC[C@]21C)C(C)(C)O`: the figures for the concentration for half-maximal inhibition (IC50) in assay [1], in assay [2] and in assay [3] were 1000 to 10000 nM, 1000 to 10000 nM and < 1000 nM, respectively.
Regarding `CCO[C@@H]([C@H]1C[C@@H](C)[C@H]2[C@H](O1)[C@H](O)[C@@]1(C)[C@@H]3CC[C@H]4C(C)(C)[C@@H](O[C@H]5CN(C6(C)COC6)CCO5)CCC45C[C@@]35CC[C@]21C)C(C)(C)O` (stereo partly drawn), the IC50 in assay [1] was < 1000 nM; in assay [2] it was 1000 to 10000 nM; in assay [3], < 1000 nM.
Regarding `CCO[C@@H]([C@H]1C[C@@H](C)[C@H]2[C@H](O1)[C@H](O)[C@]1(C)[C@@H]3CC[C@H]4C(C)(C)[C@@H](O[C@H]5CN(C(=O)C6CNC6)CCO5)CC[C@@]45C[C@@]35CC[C@@]21C)C(C)(C)O`, the IC50 is < 1000 nM in assay [1], 1000 to 10000 nM in assay [2] and < 1000 nM in assay [3].
As to `CCO[C@@H]([C@H]1C[C@@H](C)[C@H]2[C@H](O1)[C@H](O)[C@@]1(C)[C@@H]3CC[C@H]4C(C)(C)[C@@H](O[C@H]5CN(CCCO)CCO5)CCC45C[C@@]35CC[C@]21C)C(C)(C)O` (stereo partly drawn), the half-maximal inhibitory concentration (IC50) in assay [1] was 1000 to 10000 nM; in assay [2], 1000 to 10000 nM; in assay [3], < 1000 nM.
As for `CCO[C@@H]([C@H]1C[C@@H](C)[C@H]2[C@H](O1)[C@H](O)[C@@]1(C)[C@@H]3CC[C@H]4C(C)(C)[C@@H](OC(=O)[C@H]5COCCN5C)CCC45C[C@@]35CC[C@]21C)C(C)(C)O` (stereo partly drawn), the IC50 in assay [1] is < 1000 nM; in assay [2] it was > 10000 nM; in assay [3] it was < 1000 nM.
Regarding `CCO[C@@H]([C@H]1C[C@@H](C)[C@H]2[C@H](O1)[C@H](O)[C@@]1(C)[C@@H]3CC[C@H]4C(C)(C)[C@@H](OC(=O)[C@H]5COCCN5)CCC45C[C@@]35CC[C@]21C)C(C)(C)O` (stereo partly drawn), the concentration for half-maximal inhibition (IC50) in assay [1] is < 1000 nM; in assay [2] it was 1000 to 10000 nM; in assay [3], < 1000 nM.
